# Laboratory results reported in patent US5298494A, “Monosaccharides having anti-proliferation and anti-inflammatory activity, compositions and uses thereof” (Greenwich Pharmaceuticals Incorporated, priority 1993, dated 1994).
# Where “and” joins values, the source holds several entries; their conditions need not be identical. Identical values can stand only once. Like-named read-outs stand apart in the source and are kept apart here.
# Test system: T lymphocytes (normal mouse spleen cells) stimulated with ConA
# Assay: Mouse Spleen Cell ConA Blastogenesis Assay
# Format: cell-based, mouse (C57Bl/6)
# Conditions: for inhibition at 0.01 µg/mL / inhibition at 0.001 µg/mL / inhibition at 0.1 µg/mL / inhibition at 1 µg/mL / inhibition at 2.5 µg/mL / inhibition at 10 µg/mL / inhibition at 25 µg/mL / inhibition at 100 µg/mL: Mus musculus, T-lymphocyte
# Excerpt: It is well known that several plant lectins, when cultured in vitro with lymphocytes, stimulate cellular activation and proliferation. Concanavolin, (ConA) selectively stimulates the blastogenic response of T lymphocytes.
# Six to 8 week old male C57Bl/6 mice were purchased from Harlan Sprague Dawley (Indianapolis, Ind.).
# Spleens were removed and were homogenized to obtain a single cell suspension. Erythrocytes were lysed by hypotonic shock. Upon determination of the viability and concentration of the lymphoid cells, they were adjusted to 4×10^6 cells/ml in culture medium (RPMI-1640) supplemented with 10% fetal bovine serum; 100 ug/ml streptomycin; 100 U/ml penicillin, 0.2M hepes buffer; 5×10^-5 M 2-mercaptoethanol and 2 mM glutamine). seeded into microtiter plate wells at 2×10^5 cells/0.050 ml/well. To these cultures were added various doses of experimental compounds and ConA at a final concentration of 4 or 1 ug/ml. Control cultures consisted of cells, ConA and culture medium containing the vehicle, DMSO only. […] For the testing of the methyl 1,3-O-isopropylidene-6-O-n-heptyl-α-D-fructofuranoside compound indomethacin and NDGA were used as controls. All cultures were run in triplicate.
# Solutions of compounds of the invention in DMSO were prepared and dilutions were made in culture medium. Assay concentrations were either: 1, 2.5, 10, 25, 100, 300 and 750 ug/ml or 0.001, 0.01, 0.1, 1, 2.5, 10, 25 and 100 ug/ml.
# Cultures were incubated for 3 days at 37° C. in a humidified atmosphere of 5% of CO2 in air. For the last 18 hours of culture, 1 uCi of ^3 H-thymidine was also incubated in each well. The cells were precipitated by a multi-channel harvester. The amount of ^3 H-thymidine incorporated by the cultures, as a measure of cell proliferation, was measured in a liquid scintillation counter. The amount of radioactive incorporation is proportional to the amount of cellular proliferation in individual wells. The students T test was used to determine the significance of the difference between experimental and control values.
# [1] = ConA 1 ug/ml, compound 0.001 ug/ml
# [2] = ConA 1 ug/ml, compound 0.01 ug/ml
# [3] = ConA 1 ug/ml, compound 0.1 ug/ml
# [4] = ConA 1 ug/ml, compound 2.5 ug/ml
# [5] = ConA 1 ug/ml, compound 10 ug/ml
# [6] = ConA 1 ug/ml, compound 25 ug/ml
# [7] = ConA 1 ug/ml, compound 100 ug/ml
# [8] = ConA 4 ug/ml, compound 0.001 ug/ml
# [9] = ConA 4 ug/ml, compound 0.01 ug/ml
# [10] = ConA 4 ug/ml, compound 0.1 ug/ml
# [11] = ConA 4 ug/ml, compound 2.5 ug/ml
# [12] = ConA 4 ug/ml, compound 10 ug/ml
# [13] = ConA 4 ug/ml, compound 25 ug/ml
# [14] = ConA 4 ug/ml, compound 100 ug/ml
# [15] = ConA 1 ug/ml, compound 0.001 ug/ml, read-out: % change from control, ConA blastogenic response
# [16] = ConA 1 ug/ml, compound 0.1 ug/ml, read-out: % change from control, ConA blastogenic response
# [17] = ConA 1 ug/ml, compound 1 ug/ml, read-out: % change from control, ConA blastogenic response
# [18] = ConA 1 ug/ml, compound 2.5 ug/ml, read-out: % change from control, ConA blastogenic response
# [19] = ConA 1 ug/ml, compound 10 ug/ml, read-out: % change from control, ConA blastogenic response
# [20] = ConA 1 ug/ml, compound 25 ug/ml, read-out: % change from control, ConA blastogenic response
# [21] = ConA 1 ug/ml, compound 100 ug/ml, read-out: % change from control, ConA blastogenic response
# [22] = ConA 4 ug/ml, compound 0.001 ug/ml, read-out: % change from control, ConA blastogenic response
# [23] = ConA 4 ug/ml, compound 0.1 ug/ml, read-out: % change from control, ConA blastogenic response
# [24] = ConA 4 ug/ml, compound 1 ug/ml, read-out: % change from control, ConA blastogenic response
# [25] = ConA 4 ug/ml, compound 2.5 ug/ml, read-out: % change from control, ConA blastogenic response
# [26] = ConA 4 ug/ml, compound 10 ug/ml, read-out: % change from control, ConA blastogenic response
# [27] = ConA 4 ug/ml, compound 25 ug/ml, read-out: % change from control, ConA blastogenic response
# [28] = ConA 4 ug/ml, compound 100 ug/ml, read-out: % change from control, ConA blastogenic response
smiles,measurement,setting,value
"Cc1cn([C@H]2C[C@H](N=[N+]=[N-])[C@@H](CO)O2)c(=O)[nH]c1=O [AZT, reference compound]",Blastogenic response of normal spleen cells to Con-A,[1],47.1 ± 4.5 × 10^-3 cpm
same,Blastogenic response of normal spleen cells to Con-A,[2],36.7 ± 3.1 × 10^-3 cpm
same,Blastogenic response of normal spleen cells to Con-A,[3],9.1 ± 5.8 × 10^-3 cpm
same,"% change from control, ConA blastogenic response","ConA 1 ug/ml, compound 1 ug/ml",-99% and -96%
same,Blastogenic response of normal spleen cells to Con-A,"ConA 1 ug/ml, compound 1 ug/ml",1.7 ± 0.1 × 10^-3 cpm
same,"% change from control, ConA blastogenic response",[4],-98%
same,Blastogenic response of normal spleen cells to Con-A,[4],0.7 ± 0.3 × 10^-3 cpm
same,"% change from control, ConA blastogenic response",[5],-100% and -99%
same,Blastogenic response of normal spleen cells to Con-A,[5],0.5 ± 0.1 × 10^-3 cpm
same,"% change from control, ConA blastogenic response",[6],-100% and -99%
same,Blastogenic response of normal spleen cells to Con-A,[6],0.5 ± 0.2 × 10^-3 cpm
same,"% change from control, ConA blastogenic response",[7],-100% and -99%
same,Blastogenic response of normal spleen cells to Con-A,[7],0.3 ± 0.0 × 10^-3 cpm
same,Blastogenic response of normal spleen cells to Con-A,[8],163.7 ± 8.0 × 10^-3 cpm
same,Blastogenic response of normal spleen cells to Con-A,[9],158.1 × 10^-3 cpm
same,Blastogenic response of normal spleen cells to Con-A,[10],24.5 ± 3.0 × 10^-3 cpm
same,"% change from control, ConA blastogenic response","ConA 4 ug/ml, compound 1 ug/ml",-99% and -97%
same,Blastogenic response of normal spleen cells to Con-A,"ConA 4 ug/ml, compound 1 ug/ml",4.0 ± 1.5 × 10^-3 cpm
same,"% change from control, ConA blastogenic response",[11],-100% and -99%
same,Blastogenic response of normal spleen cells to Con-A,[11],1.9 ± 0.4 × 10^-3 cpm
same,"% change from control, ConA blastogenic response",[12],-100% and -99%
same,Blastogenic response of normal spleen cells to Con-A,[12],1.4 ± 0.4 × 10^-3 cpm
same,Blastogenic response of normal spleen cells to Con-A,[13],1.3 ± 0.5 × 10^-3 cpm
same,"% change from control, ConA blastogenic response",[14],-99% and -100%
same,Blastogenic response of normal spleen cells to Con-A,[14],0.6 ± 0.1 × 10^-3 cpm
same,inhibition at 0.01 µg/mL,"ConA 1 ug/ml, 0.01 ug/ml, read-out: % Change from Control (Table II)",7%
same,inhibition at 0.001 µg/mL,[15],18%
same,inhibition at 0.1 µg/mL,[16],93%
same,inhibition at 1 µg/mL,[17],96%
same,inhibition at 2.5 µg/mL,[18],98%
same,inhibition at 10 µg/mL,[19],99%
same,inhibition at 25 µg/mL,[20],99%
same,inhibition at 100 µg/mL,[21],99%
same,inhibition at 0.01 µg/mL,"ConA 4 ug/ml, 0.01 ug/ml, read-out: % Change from Control (Table II)",13%
same,inhibition at 0.001 µg/mL,[22],-5%
same,inhibition at 0.1 µg/mL,[23],99%
same,inhibition at 1 µg/mL,[24],97%
same,inhibition at 2.5 µg/mL,[25],99%
same,inhibition at 10 µg/mL,[26],99%
same,inhibition at 25 µg/mL,[27],99%
same,inhibition at 100 µg/mL,[28],100%
"CCCCCCCO[C@@H]1[C@@H](CO)O[C@@]2(CO)OC(C)(C)O[C@@H]12 [Ik, 2,3-O-isopropylidene-4-O-heptyl-β-D-fructofuranose]",Blastogenic response of normal spleen cells to Con-A,[1],139.5 ± 4.0 × 10^-3 cpm
same,Blastogenic response of normal spleen cells to Con-A,[2],146.4 ± 5.2 × 10^-3 cpm
same,Blastogenic response of normal spleen cells to Con-A,[3],145 ± 6.9 × 10^-3 cpm
same,Blastogenic response of normal spleen cells to Con-A,"ConA 1 ug/ml, compound 1 ug/ml",119.1 ± 3.3 × 10^-3 cpm
same,Blastogenic response of normal spleen cells to Con-A,[4],98.5 ± 7.0 × 10^-3 cpm
same,Blastogenic response of normal spleen cells to Con-A,[6],1.4 ± 0.2 × 10^-3 cpm
same,Blastogenic response of normal spleen cells to Con-A,[7],0.3 ± 0.1 × 10^-3 cpm
same,Blastogenic response of normal spleen cells to Con-A,[8],167.1 ± 16.7 × 10^-3 cpm
same,Blastogenic response of normal spleen cells to Con-A,[9],212.6 ± 16.3 × 10^-3 cpm
same,Blastogenic response of normal spleen cells to Con-A,[10],183.6 ± 10.4 × 10^-3 cpm
same,Blastogenic response of normal spleen cells to Con-A,"ConA 4 ug/ml, compound 1 ug/ml",135.3 ± 10.8 × 10^-3 cpm
same,Blastogenic response of normal spleen cells to Con-A,[11],90.4 ± 7.8 × 10^-3 cpm
same,Blastogenic response of normal spleen cells to Con-A,[12],18.4 ± 0.2 × 10^-3 cpm
same,Blastogenic response of normal spleen cells to Con-A,[13],2.5 ± 0.4 × 10^-3 cpm
same,Blastogenic response of normal spleen cells to Con-A,[14],0.4 ± 0.1 × 10^-3 cpm
same,inhibition at 0.001 µg/mL,[15],-11%
same,inhibition at 0.01 µg/mL,"ConA 1 ug/ml, compound 0.01 ug/ml, read-out: % change from control, ConA blastogenic response",-8%
same,inhibition at 0.1 µg/mL,[16],3%
same,inhibition at 1 µg/mL,[17],19%
same,inhibition at 2.5 µg/mL,[18],21%
same,inhibition at 10 µg/mL,[19],79%
same,inhibition at 25 µg/mL,[20],99%
same,inhibition at 100 µg/mL,[21],100%
same,inhibition at 0.001 µg/mL,[22],8%
same,inhibition at 0.01 µg/mL,"ConA 4 ug/ml, compound 0.01 ug/ml, read-out: % change from control, ConA blastogenic response",-14%
same,inhibition at 0.1 µg/mL,[23],8%
same,inhibition at 1 µg/mL,[24],35%
same,inhibition at 2.5 µg/mL,[25],51%
same,inhibition at 10 µg/mL,[26],91%
same,inhibition at 25 µg/mL,[27],99%
same,inhibition at 100 µg/mL,[28],100%
